Holding throughout (format): biochemical
One experiment concerns the target JAK3 (Homo sapiens (Human), UniProt P52333). Kind of experiment: JAK Caliper Enzyme Assay at 1 mM ATP, JAK3. In short, it runs like this:
(§1)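 Recombinant human kinase domains phosphorylated a fluorescent synthetic peptide at room temperature, with enzyme level and time tuned to 20% to 30% conversion; EDTA stop buffer ended reactions. Mobility-shift separation gave percent product from peak heights, normalised to DMSO and positive controls, and IC50s came from concentration–effect curves.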

In the next experiment the target is JAK1 (Homo sapiens (Human), UniProt P23458). Kind of experiment: JAK Caliper Enzyme Assay at 1 mM ATP, JAK1. In outline:
as §1

A further experiment has as its target JAK2 (Homo sapiens (Human), UniProt O60674). Kind of experiment: JAK Caliper Enzyme Assay at 1 mM ATP, JAK2. In short, it runs like this:
(§2)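 Human recombinant kinase domain + fluorescently labelled synthetic peptide, 1 mM ATP, RT; enzyme level/time set for 20–30% phosphorylation. EDTA stop. LabChip separation, peak-height % conversion, % effect vs plate controls.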

For another experiment, the target named is TYK2 (Homo sapiens (Human), UniProt P29597). Briefly: JAK Caliper Enzyme Assay at 1 mM ATP, TYK2. In short, it runs like this: as §2
Sequence of TYK2 (P29597 897-1176): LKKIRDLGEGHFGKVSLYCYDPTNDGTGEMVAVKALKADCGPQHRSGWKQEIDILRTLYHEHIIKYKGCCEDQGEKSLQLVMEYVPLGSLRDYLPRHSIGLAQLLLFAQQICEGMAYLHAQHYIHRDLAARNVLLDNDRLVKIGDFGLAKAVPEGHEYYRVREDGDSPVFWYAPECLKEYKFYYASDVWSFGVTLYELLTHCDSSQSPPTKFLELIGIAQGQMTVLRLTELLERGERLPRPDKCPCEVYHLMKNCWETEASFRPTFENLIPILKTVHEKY

Drawing on US11254668B2, “Pyrazolo[1,5-A]pyrazin-4-yl and related derivatives” (Pfizer Inc., priority 2017, dated 2022), this text covers IC50 for 20 compounds.

Each structure is given as a SMILES string.

Sequence of JAK1 (P23458 875-1153): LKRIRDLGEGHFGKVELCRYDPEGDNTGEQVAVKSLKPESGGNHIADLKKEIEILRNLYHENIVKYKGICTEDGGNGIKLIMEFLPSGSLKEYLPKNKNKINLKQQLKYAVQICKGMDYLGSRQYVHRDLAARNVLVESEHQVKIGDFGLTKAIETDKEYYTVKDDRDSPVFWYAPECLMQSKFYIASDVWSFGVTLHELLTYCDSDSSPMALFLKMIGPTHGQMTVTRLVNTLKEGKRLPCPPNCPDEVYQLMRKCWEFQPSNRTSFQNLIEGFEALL
Sequence of JAK3 (P52333 822-1111): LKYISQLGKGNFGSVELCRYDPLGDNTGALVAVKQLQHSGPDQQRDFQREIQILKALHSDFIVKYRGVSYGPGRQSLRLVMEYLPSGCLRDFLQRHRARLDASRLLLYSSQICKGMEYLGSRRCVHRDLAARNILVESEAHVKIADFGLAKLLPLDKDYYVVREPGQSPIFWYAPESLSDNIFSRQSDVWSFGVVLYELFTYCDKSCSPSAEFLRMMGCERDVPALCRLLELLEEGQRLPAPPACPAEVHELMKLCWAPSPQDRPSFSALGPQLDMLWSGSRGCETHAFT
Sequence of JAK2 (O60674 849-1124): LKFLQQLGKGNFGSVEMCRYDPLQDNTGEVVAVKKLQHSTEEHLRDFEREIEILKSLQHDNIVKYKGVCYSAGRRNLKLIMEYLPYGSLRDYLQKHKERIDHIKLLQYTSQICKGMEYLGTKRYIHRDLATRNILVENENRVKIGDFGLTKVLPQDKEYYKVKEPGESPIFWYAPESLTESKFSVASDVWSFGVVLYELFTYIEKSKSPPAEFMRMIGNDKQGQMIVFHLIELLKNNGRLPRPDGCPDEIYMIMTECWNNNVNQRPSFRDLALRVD

As for `N#CCC1(n2ccc(-c3nc(-c4cn[nH]n4)cc4ncccc34)n2)CN(CC(F)(F)F)C1` [Example 153, [3-{3-[7-(2H-1,2,3-triazol-4-yl)-1,6-naphthyridin-5-yl]-1H-pyrazol-1-yl}-1-(2,2,2-trifluoroethyl)azetidin-3-yl]acetonitrile], the IC50 (usually the point on the concentration scale where inhibition reaches its midpoint) at JAK3 was above 10 µM; on JAK1, 5.84 µM; at JAK2 it was 3.35 µM; at TYK2, 0.239 µM.
In the same order, the values of `Cn1ncc(-c2cc3ncccc3c(-c3ccn(C4(CC#N)CN(CC(F)(F)F)C4)n3)n2)n1` [Example 154, [3-{3-[7-(2-methyl-2H-1,2,3-triazol-4-yl)-1,6-naphthyridin-5-yl]-1H-pyrazol-1-yl}-1-(2,2,2-trifluoroethyl)azetidin-3-yl]acetonitrile] are above 10 µM, above 10 µM, 3.18 µM and 0.287 µM.
In the same order, the values of `N#CCC1(n2ccc(-c3nc(-c4nc(CO)cs4)cc4ncccc34)n2)CC(C#N)C1` (stereo not drawn) [Example 156, cis-3-(cyanomethyl)-3-(3-{7-[4-(hydroxymethyl)-1,3-thiazol-2-yl]-1,6-naphthyridin-5-yl}-1H-pyrazol-1-yl)cyclobutanecarbonitrile] are above 10 µM, 2.05 µM, 0.815 µM and 0.119 µM.
In the same order, the values of `CS(=O)(=O)N1CC(CC#N)(n2ccc(-c3nc(-c4c[nH]c5nccc-5c4)cc4ncccc34)n2)C1` [Example 157, [1-(methylsulfonyl)-3-{3-[7-(7H-pyrrolo[2,3-b]pyridin-5-yl)-1,6-naphthyridin-5-yl]-1H-pyrazol-1-yl}azetidin-3-yl]acetonitrile] are above 10 µM, 1.68 µM, 0.856 µM and 0.148 µM.
`N#CCC1(n2ccc(-c3nc(-c4cnc5cc[nH]c5c4)cc4ncccc34)n2)CN(CC(F)(F)F)C1` [Example 158, [3-{3-[7-(1H-pyrrolo[3,2-b]pyridin-6-yl)-1,6-naphthyridin-5-yl]-1H-pyrazol-1-yl}-1-(2,2,2-trifluoroethyl)azetidin-3-yl]acetonitrile]: the IC50 at JAK3 is above 10 µM; at JAK1, 1.97 µM; on JAK2, 0.666 µM; on TYK2, 0.033 µM.
Consider `CS(=O)(=O)N1CC(CC#N)(n2ccc(-c3nc(-c4c[nH]c5ncccc45)cc4ncccc34)n2)C1` [Example 159, [1-(methylsulfonyl)-3-{3-[7-(1H-pyrrolo[2,3-b]pyridin-3-yl)-1,6-naphthyridin-5-yl]-1H-pyrazol-1-yl}azetidin-3-yl]acetonitrile], for which the IC50 was above 10 µM on JAK3, 0.12 µM at JAK1, 0.116 µM at JAK2 and 0.007 µM on TYK2.
In the case of `CS(=O)(=O)N1CC(CC#N)(n2ccc(-c3nc(-c4c[nH]c5cccnc45)cc4ncccc34)n2)C1` [Example 160, [1-(methylsulfonyl)-3-{3-[7-(1H-pyrrolo[3,2-b]pyridin-3-yl)-1,6-naphthyridin-5-yl]-1H-pyrazol-1-yl}azetidin-3-yl]acetonitrile], the IC50 is above 10 µM on JAK3, above 10 µM at JAK1, 5.57 µM at JAK2 and 0.795 µM on TYK2.
For `CS(=O)(=O)N1CC(CC#N)(n2ccc(-c3nc(-c4cnn5ccccc45)cc4ncccc34)n2)C1` [Example 161, [1-(methylsulfonyl)-3-{3-[7-(pyrazolo[1,5-a]pyridin-3-yl)-1,6-naphthyridin-5-yl]-1H-pyrazol-1-yl}azetidin-3-yl]acetonitrile], the IC50 was above 10 µM at JAK3, 0.404 µM at JAK1, 0.368 µM on JAK2 and 0.035 µM at TYK2.
The matching figures for `CS(=O)(=O)N1CC(CC#N)(n2ccc(-c3nc(-c4ccc5nccn5c4)cc4ncccc34)n2)C1` [Example 162, [3-{3-[7-(imidazo[1,2-a]pyridin-6-yl)-1,6-naphthyridin-5-yl]-1H-pyrazol-1-yl}-1-(methylsulfonyl)azetidin-3-yl]acetonitrile]: above 10 µM, 0.788 µM, 0.546 µM and 0.068 µM.
As to `CS(=O)(=O)N1CC(CC#N)(n2ccc(-c3nc(-c4ccn5ccnc5c4)cc4ncccc34)n2)C1` [Example 163, [3-{3-[7-(imidazo[1,2-a]pyridin-7-yl)-1,6-naphthyridin-5-yl]-1H-pyrazol-1-yl}-1-(methylsulfonyl)azetidin-3-yl]acetonitrile], the IC50 was above 10 µM on JAK3, 4.07 µM at JAK1, 0.294 µM at JAK2 and 0.042 µM on TYK2.
In the case of `Cn1cnc2cc(-c3cc4ncccc4c(-c4ccn(C5(CC#N)CN(S(C)(=O)=O)C5)n4)n3)cnc21` [Example 164, [3-{3-[7-(3-methyl-3H-imidazo[4,5-b]pyridin-6-yl)-1,6-naphthyridin-5-yl]-1H-pyrazol-1-yl}-1-(methylsulfonyl)azetidin-3-yl]acetonitrile], the IC50 was above 10 µM on JAK3, 6.57 µM on JAK1, 4.72 µM on JAK2 and 0.235 µM at TYK2.
As for `CS(=O)(=O)N1CC(CC#N)(n2ccc(-c3nc(-c4cnc5nccn5c4)cc4ncccc34)n2)C1` [Example 165, [3-{3-[7-(imidazo[1,2-a]pyrimidin-6-yl)-1,6-naphthyridin-5-yl]-1H-pyrazol-1-yl}-1-(methylsulfonyl)azetidin-3-yl]acetonitrile], the IC50 at JAK3 was above 10 µM; at JAK1, above 10 µM; on JAK2 it was 9.44 µM; at TYK2, 1.39 µM.
Regarding `CS(=O)(=O)N1CC(CC#N)(n2ccc(-c3nc(-c4cnc5cn[nH]c5c4)cc4ncccc34)n2)C1` [Example 166, [1-(methylsulfonyl)-3-{3-[7-(1H-pyrazolo[4,3-b]pyridin-6-yl)-1,6-naphthyridin-5-yl]-1H-pyrazol-1-yl}azetidin-3-yl]acetonitrile], the IC50 was above 10 µM at JAK3, 7.38 µM on JAK1, 0.728 µM at JAK2 and 0.044 µM on TYK2.
In the same order, the values of `N#CCC1(n2ccc(-c3nc(-c4ccc5nncn5c4)cc4ncccc34)n2)CN(CC(F)(F)F)C1` [Example 167, [3-{3-[7-([1,2,4]triazolo[4,3-a]pyridin-6-yl)-1,6-naphthyridin-5-yl]-1H-pyrazol-1-yl}-1-(2,2,2-trifluoroethyl)azetidin-3-yl]acetonitrile] are above 10 µM, 2.73 µM, 1.29 µM and 0.129 µM.
In the same order, the values of `CS(=O)(=O)N1CC(CC#N)(n2ccc(-c3nc(-c4cnn5cccnc45)cc4ncccc34)n2)C1` [Example 168, [1-(methylsulfonyl)-3-{3-[7-(pyrazolo[1,5-a]pyrimidin-3-yl)-1,6-naphthyridin-5-yl]-1H-pyrazol-1-yl}azetidin-3-yl]acetonitrile] are above 10 µM, 8.82 µM, 6.59 µM and 0.592 µM.
In the same order, the values of `CS(=O)(=O)N1CC(CC#N)(n2ccc(-c3nc(-c4cnc5[nH]c(=O)[nH]c5c4)cc4ncccc34)n2)C1` [Example 169, [1-(methylsulfonyl)-3-{3-[7-(2-oxo-2,3-dihydro-1H-imidazo[4,5-b]pyridin-6-yl)-1,6-naphthyridin-5-yl]-1H-pyrazol-1-yl}azetidin-3-yl]acetonitrile] are above 10 µM, above 10 µM, 0.241 µM and 0.022 µM.
As to `CS(=O)(=O)N1CC(CC#N)(n2ccc(-c3nc(-c4cnc5c(c4)NCCN5)cc4ncccc34)n2)C1` [Example 170, [1-(methylsulfonyl)-3-{3-[7-(1,2,3,4-tetrahydropyrido[2,3-b]pyrazin-7-yl)-1,6-naphthyridin-5-yl]-1H-pyrazol-1-yl}azetidin-3-yl]acetonitrile], the IC50 on JAK3 was above 10 µM; on JAK1 it was 1.43 µM; on JAK2 it was 0.399 µM; at TYK2, 0.056 µM.
`N#CCC1(n2ccc(-c3nc(-c4ccncc4)cc4ncccc34)n2)CN(CC(F)(F)F)C1` [Example 172, [3-{3-[7-(pyridin-4-yl)-1,6-naphthyridin-5-yl]-1H-pyrazol-1-yl}-1-(2,2,2-trifluoroethyl)azetidin-3-yl]acetonitrile]: the IC50 at JAK3 is above 10 µM; at JAK1 it was 0.608 µM; at JAK2, 0.388 µM; on TYK2, 0.027 µM.
For `Cc1cncc(-c2cc3ncccc3c(-c3ccn(C4(CC#N)CN(CC(F)(F)F)C4)n3)n2)c1` [Example 173, [3-{3-[7-(5-methylpyridin-3-yl)-1,6-naphthyridin-5-yl]-1H-pyrazol-1-yl}-1-(2,2,2-trifluoroethyl)azetidin-3-yl]acetonitrile], the IC50 at JAK3 is above 10 µM; on JAK1, above 10 µM; on JAK2, 7.88 µM; on TYK2, 1.88 µM.
Turning to `Cc1cc(-c2cc3ncccc3c(-c3ccn(C4(CC#N)CN(S(C)(=O)=O)C4)n3)n2)ccn1` [Example 174, [3-{3-[7-(2-methylpyridin-4-yl)-1,6-naphthyridin-5-yl]-1H-pyrazol-1-yl}-1-(methylsulfonyl)azetidin-3-yl]acetonitrile], the IC50 is above 10 µM at JAK3, 0.785 µM on JAK1, 0.332 µM at JAK2 and 0.049 µM at TYK2.
